The results in this text go back to patent US20200289144A1, “DEVICE, METHOD AND FORMULATION FOR CHEMICALLY ASSISTED DISSECTION” (priority 2016, published 2020).

Each structure is given as a SMILES string.

The subject of data set [1] is human MRC-5 fibroblasts. The experiment in a line: Qualitative evaluation of cytotoxicity by microscopic examination. Conditions: mean ± SD of scores. As to the method:
In vitro cytotoxicity of Mesna in human MRC-5 fibroblasts was evaluated. Two experiments were performed. The first one was performed with two doses of Mesna (5% and 10%) and NaCl (7.06 and 3.53%) and the second one was performed with three doses of Mesna (5, 10 and 20%) and the three corresponding doses of NaCl (7.06, 3.53 and 1.76%). All samples were assayed in triplicate. Evaluation of cytotoxicity was evaluated after the following times: T15 min, T30 min, T1h, T2h, T4h, T8h and T24h.
Cells were thawed according to the standard operating procedure No. TEC-005 and subcultured according to the standard operating procedure No. TEC-001. The cell line was cultured in 75 cm^2-flasks in appropriated culture medium.
A score was assigned based on observations.

Data set [2] concerns human MRC-5 fibroblasts. Description: Quantitative evaluation of cytotoxicity, viability assay using MU reagent. It counts as cell-based. The settings on record: for cytotoxicity (percentage of viability below 70% compared to culture medium): result in words. As to the method:
Two experiments were performed. […] All samples were assayed in triplicate.
The cytotoxicity is defined by a viability of a test substance below 70% in compartion to culture medium.

A short description of data set [3]: Mesna purity before and after sterilization using X-rays and gamma irradiation. It counts as physicochemical. The text has this: Mesna purity has been evaluated prior and after sterilization using X-rays and gamma irradiation.

As for `[Cl-].[Na+]` [NaCl 1.76%, NaCl], the “cytotoxicity score (microscopic examination)” value (from here on “cytotoxicity score”) in data set [1] (15 min exposure) stood at 0.0; in data set [1] (30 min exposure), 0.0; in data set [1] (1 h exposure), 1.0; in data set [1] (2 h exposure) it was 2.0; in data set [1] (4 h exposure), 3.0; in data set [1] (8 h exposure), 3.0. In addition, in data set [1] (24 h exposure), the “cytotoxicity score” value turned out to be 4.0. In addition, the “percentage of cell viability compared to culture medium (100% of viability)” value (from here on “percentage … (100% of viability)”) in data set [2] (15 min (0.25 h) exposure) came to 88.8%; in data set [2] (30 min (0.5 h) exposure) it was 102.6%; in data set [2] (1 h exposure), 95%; in data set [2] (2 h exposure), 75.5%; in data set [2] (4 h exposure) it was 44%; in data set [2] (8 h exposure) it was 23.1%. The “percentage … (100% of viability)” value in data set [2] (24 h exposure) was 8%. Also, in data set [2], the “cytotoxicity (percentage of viability below 70% compared to culture medium)” value is on record as “not cytotoxic after 2 hours”.
Take `[Cl-].[Na+]` [NaCl 7.06%, NaCl]: the “cytotoxicity score” value is listed as 0.0 ± 0.0 in data set [1] (15 min exposure); 0.5 ± 0.7 in data set [1] (30 min exposure); 2.5 ± 0.7 in data set [1] (1 h exposure); 3.0 ± 0.0 in data set [1] (2 h exposure); 3.0 ± 0.0 in data set [1] (4 h exposure); 3.0 ± 0.0 in data set [1] (8 h exposure). Further, in data set [1] (24 h exposure), the “cytotoxicity score” value came out at 4 ± 0. For the same compound, the “percentage … (100% of viability)” value is 45.2% in data set [2] (15 min (0.25 h) exposure); 25.3% in data set [2] (30 min (0.5 h) exposure); 12.7% in data set [2] (1 h exposure); 12.3% in data set [2] (2 h exposure); 10.8% in data set [2] (4 h exposure); 14.6% in data set [2] (8 h exposure). Besides, the “percentage … (100% of viability)” value in data set [2] (24 h exposure) is 7.3%.
For `O=S(=O)([O-])CCS.[Na+]` [Mesna 5%, Sodium 2-mercaptoethanesulfonate], the “cytotoxicity score” value came to 0.0 ± 0.0 in data set [1] (15 min exposure); 1.5 ± 0.7 in data set [1] (30 min exposure); 1.5 ± 0.7 in data set [1] (1 h exposure); 3.0 ± 0.0 in data set [1] (2 h exposure); 3.0 ± 0.0 in data set [1] (4 h exposure); 3.0 ± 0.0 in data set [1] (8 h exposure). The “cytotoxicity score” value in data set [1] (24 h exposure) is 4 ± 0. Besides, the “percentage … (100% of viability)” value in data set [2] (15 min (0.25 h) exposure) is recorded as 66%; in data set [2] (30 min (0.5 h) exposure), 47.6%; in data set [2] (1 h exposure), 50.4%; in data set [2] (2 h exposure), 39.7%; in data set [2] (4 h exposure), 12%; in data set [2] (8 h exposure) it was 3.4%. Further, the “percentage … (100% of viability)” value in data set [2] (24 h exposure) is on record as 1.4%.
On to `[Cl-].[Na+]` [NaCl 3.53%, NaCl], for which the “cytotoxicity score” value in data set [1] (15 min exposure) turned out to be 0.0 ± 0.0; in data set [1] (30 min exposure), 0.0 ± 0.0; in data set [1] (1 h exposure), 2 ± 1.4; in data set [1] (2 h exposure) it was 3.0 ± 0.0; in data set [1] (4 h exposure), 3.0 ± 0.0; in data set [1] (8 h exposure) it was 3.0 ± 0.0. Also, the “cytotoxicity score” value in data set [1] (24 h exposure) came to 4 ± 0. Moreover, the “percentage … (100% of viability)” value worked out at 82.7% in data set [2] (15 min (0.25 h) exposure); 55.4% in data set [2] (30 min (0.5 h) exposure); 16.3% in data set [2] (1 h exposure); 12.7% in data set [2] (2 h exposure); 10.5% in data set [2] (4 h exposure); 14.4% in data set [2] (8 h exposure). In data set [2] (24 h exposure), the “percentage … (100% of viability)” value was found to be 7.2%.
Consider `O=S(=O)([O-])CCS.[Na+]` [Pure lyophilized Mesna, Sodium 2-mercaptoethanesulfonate], for which the Mesna purity in data set [3] (After X-ray irradiation) is on record as 89.3; in data set [3] (After gamma irradiation), 89.1; in data set [3] (Prior irradiation), 89.4.
In the case of `Oc1ccccc1` [Phenol 0.5%, Phenol], the “cytotoxicity score” value in data set [1] (15 min exposure), in data set [1] (30 min exposure), in data set [1] (1 h exposure), in data set [1] (2 h exposure), in data set [1] (4 h exposure) and in data set [1] (8 h exposure) was 3.0 ± 0.0 throughout. Moreover, the “cytotoxicity score” value in data set [1] (24 h exposure) amounted to 4.0 ± 0.0. For the same compound, the “percentage … (100% of viability)” value in data set [2] (15 min (0.25 h) exposure) is listed as 10.9%; in data set [2] (30 min (0.5 h) exposure), 13.2%; in data set [2] (1 h exposure), 11.3%; in data set [2] (2 h exposure), 13.6%; in data set [2] (4 h exposure), 10.4%; in data set [2] (8 h exposure), 14.2%. The “percentage … (100% of viability)” value in data set [2] (24 h exposure) was determined as 8.5%. The “cytotoxicity (percentage of viability below 70% compared to culture medium)” value in data set [2] is “observed at all time points”.
`O=S(=O)([O-])CCS.[Na+]` [Mesna powder, Sodium 2-mercaptoethanesulfonate]: the Mesna purity in data set [3] (After X-ray irradiation) amounted to 89.0; in data set [3] (After gamma irradiation), 88.9; in data set [3] (Prior irradiation), 89.6.
Regarding `O=S(=O)([O-])CCS.[Na+]` [Mesna 20%, Sodium 2-mercaptoethanesulfonate], the “cytotoxicity score” value in data set [1] (15 min exposure) stood at 0.0; in data set [1] (30 min exposure) it was 1.0; in data set [1] (1 h exposure), 2.0; in data set [1] (2 h exposure) it was 3.0; in data set [1] (4 h exposure), 3.0; in data set [1] (8 h exposure), 3.0. Moreover, the “cytotoxicity score” value in data set [1] (24 h exposure) is recorded as 4.0. Further, the “percentage … (100% of viability)” value in data set [2] (15 min (0.25 h) exposure) was −10.2%; in data set [2] (30 min (0.5 h) exposure), −1.2%; in data set [2] (1 h exposure) it was 47.2%; in data set [2] (2 h exposure), 11.8%; in data set [2] (4 h exposure) it was 4.6%; in data set [2] (8 h exposure) it was 12.1%. In addition, the “percentage … (100% of viability)” value in data set [2] (24 h exposure) is reported as 18.3%.
For the compound `O=S(=O)([O-])CCS.[Na+]` [Mesna 10%, Sodium 2-mercaptoethanesulfonate], the “cytotoxicity score” value in data set [1] (15 min exposure) stood at 0.0 ± 0.0; in data set [1] (30 min exposure), 0.0 ± 0.0; in data set [1] (1 h exposure), 1.0 ± 0.0; in data set [1] (2 h exposure) it was 3.0 ± 0.0; in data set [1] (4 h exposure), 3.0 ± 0.0; in data set [1] (8 h exposure), 3.0 ± 0.0. Further, the “cytotoxicity score” value in data set [1] (24 h exposure) is on record as 4 ± 0. In addition, the “percentage … (100% of viability)” value in data set [2] (15 min (0.25 h) exposure) stood at 62.3%; in data set [2] (30 min (0.5 h) exposure), 54.8%; in data set [2] (1 h exposure) it was 20.6%; in data set [2] (2 h exposure), 4.1%; in data set [2] (4 h exposure) it was 3.2%; in data set [2] (8 h exposure), 3.3%. In data set [2] (24 h exposure), the “percentage … (100% of viability)” value came out at 1.1%.
